Molecular target: TrkA receptor (Homo sapiens (Human), UniProt P04629)
Assay: DiscoverX PathHunter TrkA functional assay (U2OS cells, NGF stimulated)
Format: cell-based
Settings: U2OS cells expressing TrkA-Prolink and Shc1-EA; compound 1 hour, then EC80 of NGF for 3 hours; luminescence
Experimental: TrkA functional activity was measured using a DiscoverX PathHunter assay. In this assay, U2OS cells are express TrkA receptor as a fusion with the weakly complementing fragment of B-galactosidase, which DiscoverX calls “Prolink (PK)”; additionally, Shc1 is fused with a larger fragment, which is called “Enzyme Acceptor (EA)”. Activation of the TrkA receptor, upon NGF addition, results in the kinase domain being phosphorylated, resulting in subsequent recruitment of Shc1-EA protein. That recruitment results in an active B-galactosidase enzyme that is detected by addition of a chemiluminescent substrate.
All reagents were purchased from DiscoverX, except for the receptor agonists (NGF, BDNF, NT3) which were purchased from Peprotech. Cells were expanded and frozen into cryovials (TrkA p75 @ passage 13, 1.5×10^7 cells/vial; TrkC p75 @ passage 11, 1.5×10^7 cells/vial in InVitrogen Recovery Cell Freezing media), and stored in the vapor phase of liquid nitrogen, and thawed immediately before use. Thawed cells were added to a 384-well plate (BD Falcon 384-well white/clear, TC surface 120 uL assay plates (353963), 20 uL of 0.375e6 cells/mL=>7500 cells/well), and allowed to incubate overnight. Compound (10 mM starting dose: 202.5 nL compound yielding 0.81% DMSO final in total assay volume and starting doses 81 uM) was added the following morning and allowed to incubate on cells for 1 hour. Then, 5 uL EC80 of agonist (NGF for TrkA; BDNF for TrkB; NT3 for TrkC) was added and allowed to incubate for 3 hours at room temperature. DiscoverX PathHunter detection reagent is added (12 uL to plate and components diluted in parts as per kit instructions) and the plate is further incubated for 1 hour in the dark. The plate is read via luminescence on the Perkin Elmer Envision.

TrkA receptor, sequence (P04629 33-796): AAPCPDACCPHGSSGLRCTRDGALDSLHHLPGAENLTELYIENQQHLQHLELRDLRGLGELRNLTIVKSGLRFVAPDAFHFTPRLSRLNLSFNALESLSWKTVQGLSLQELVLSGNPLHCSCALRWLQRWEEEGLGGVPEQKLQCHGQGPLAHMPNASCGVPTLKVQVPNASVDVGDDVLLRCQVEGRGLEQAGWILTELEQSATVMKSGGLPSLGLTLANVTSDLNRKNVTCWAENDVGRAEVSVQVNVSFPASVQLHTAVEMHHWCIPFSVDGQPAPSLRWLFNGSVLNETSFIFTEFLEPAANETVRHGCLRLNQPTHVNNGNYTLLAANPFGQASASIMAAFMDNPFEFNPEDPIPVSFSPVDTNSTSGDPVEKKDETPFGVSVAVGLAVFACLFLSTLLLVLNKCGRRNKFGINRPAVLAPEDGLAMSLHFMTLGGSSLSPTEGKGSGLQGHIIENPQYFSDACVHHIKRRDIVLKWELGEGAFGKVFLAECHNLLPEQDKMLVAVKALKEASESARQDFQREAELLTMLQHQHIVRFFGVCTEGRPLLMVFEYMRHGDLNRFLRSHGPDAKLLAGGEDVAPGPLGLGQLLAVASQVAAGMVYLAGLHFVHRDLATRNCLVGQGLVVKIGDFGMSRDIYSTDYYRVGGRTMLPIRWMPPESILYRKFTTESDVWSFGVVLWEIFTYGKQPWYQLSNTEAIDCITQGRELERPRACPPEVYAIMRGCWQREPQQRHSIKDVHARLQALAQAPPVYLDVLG

IC50 [µM] | SMILES
1.8 | Cc1cc(NC(=O)Nc2ccccn2)n(-c2ccccc2)n1 [Compound 10, 1-(3-methyl-1-phenyl-1H-pyrazol-5-yl)-3-pyridin-2-ylurea]
2.3 | Cc1ncc(NC(=O)Nc2sc(C)nc2-c2ccccc2)c(-c2ccccc2)n1 [Compound 36, 1-(2-methyl-4-phenylpyrimidin-5-yl)-3-(2-methyl-4-phenyl-1,3-thiazol-5-yl)urea]
4 | Cc1nc(-c2ccccc2)c(NC(=O)Nc2c(-c3ccccc3)ncn2C)s1 [Compound 33, 1-(1-methyl-4-phenyl-1H-imidazol-5-yl)-3-(2-methyl-4-phenyl-1,3-thiazol-5-yl)urea]
4.2 | O=C(Nc1ccc(C(F)(F)F)cc1Cl)Nc1c(-c2ccccc2)nc2ccccn12 [Compound 22, 1-[2-chloro-4-(trifluoromethyl)phenyl]-3-(2-phenylimidazo[1,2-a]pyridin-3-yl)urea]
3.4 | COc1ccc(NC(=O)Nc2cc(C)nn2-c2ccccc2)nc1 [Compound 11, 1-(5-methoxypyridin-2-yl)-3-(3-methyl-1-phenyl-1H-pyrazol-5-yl)urea]

From patent US9896447B2, “TrkA kinase inhibitors, compositions and methods thereof” (MERCK SHARP & DOHME CORP., priority 2013, dated 2018)
